From PubChem BioAssay (NCI)
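Exposure lasted 48 hours, with cells grown in 96-well plates and compounds tested at five concentrations. At the GI50, growth is halved. TGI: concentration producing complete growth inhibition.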

Legend:
Assay in all cases: NCI tumour cell line growth inhibition, 48 h
[1] = test system: MDA-MB-435
[2] = test system: NCI/ADR-RES ovarian
[3] = test system: U251 CNS
[4] = test system: HOP-92 NSCLC
[5] = test system: SK-OV-3 ovarian
[6] = test system: HS 578T breast
[7] = test system: CAKI-1 renal
[8] = test system: PC-3 prostate
[9] = test system: MDA-MB-468 breast
[10] = test system: HCC-2998 colon
[11] = test system: ACHN renal
[12] = test system: UO-31 renal
[13] = test system: COLO 205 colon
[14] = test system: RPMI-8226 leukemia
[15] = test system: LOX IMVI melanoma
[16] = test system: HL-60(TB) leukemia
[17] = test system: OVCAR-5 ovarian
[18] = test system: T-47D breast
[19] = test system: CCRF-CEM leukemia
[20] = test system: SW-620 colon
[21] = test system: SF-268 CNS
[22] = test system: HT29 colon
[23] = test system: A498 renal
[24] = test system: NCI-H522 lung
[25] = test system: SF-539 CNS
[26] = test system: UACC-257 melanoma
[27] = test system: K-562 leukemia
[28] = test system: A549 NSCLC
[29] = test system: NCI-H23 lung
[30] = test system: MALME-3M melanoma

With `CN1CCN(Cc2ccc(NC(=O)c3cncc(C#Cc4cnc5ccc(N[C@@H]6CCOC6)nn45)c3)cc2C(F)(F)F)CC1` the GI50 [1] was 113 nM, the TGI [1] was 338 nM and the GI50 [2] was 2780 nM. It also gave a TGI [2] of 17100 nM, a GI50 [3] of 216 nM and a TGI [3] of 879 nM. For the same molecule, the GI50 [4] was 27.7 nM, the TGI [4] was 133 nM and the GI50 [5] was 274 nM. The TGI [5] was 713 nM, the GI50 [6] was 28.8 nM and the TGI [6] was 398 nM. It also gave a GI50 [7] of 128 nM, a TGI [7] of 484 nM and a GI50 [8] of 161 nM. It also gave a TGI [8] of 1160 nM, a GI50 [9] of 60 nM and a TGI [9] of 194 nM. The GI50 [10] was 198 nM, the TGI [10] was 553 nM and the GI50 [11] was 256 nM. The TGI [11] was 1040 nM, the GI50 [12] was 1190 nM and the TGI [12] was 2930 nM. The GI50 [13] was 30.1 nM, the TGI [13] was 86.8 nM and the GI50 [14] was 201 nM. The TGI [14] was 1570 nM, the GI50 [15] was 55.4 nM and the TGI [15] was 187 nM. For the same molecule, the GI50 [16] was 85.5 nM, the TGI [16] was 759 nM and the GI50 [17] was 202 nM. For the same molecule, the TGI [17] was 618 nM, the GI50 [18] was 323 nM and the TGI [18] was 3140 nM. The GI50 [19] was < 9.7 nM, the TGI [19] was 356 nM and the GI50 [20] was 94.4 nM. The TGI [20] was 603 nM, the GI50 [21] was 122 nM and the TGI [21] was 377 nM. It also gave a GI50 [22] of 87.9 nM, a TGI [22] of 415 nM and a GI50 [23] of 269 nM. It also gave a TGI [23] of 475 nM, a GI50 [24] of 122 nM and a TGI [24] of 280 nM. For the same molecule, the GI50 [25] was 19.3 nM, the TGI [25] was 74.2 nM and the GI50 [26] was 361 nM. For the same molecule, the TGI [26] was 4380 nM, the GI50 [27] was < 9.7 nM and the TGI [27] was 10100 nM. It also gave a GI50 [28] of 138 nM, a TGI [28] of 1010 nM and a GI50 [29] of 108 nM. It also gave a TGI [29] of 265 nM and a GI50 [30] of 89.7 nM.
